#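 Compound exposure: 48 hours, 5 concentrations, 96-well plates. GI50: concentration for 50% inhibition of growth.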 Active and inactive are the calls of the source. Rule as the data show it: active = GI50 up to about 1.1 µM and inactive = higher.
# What was measured:
# Assay in all cases: NCI tumour cell line growth inhibition, 48 h
# KM12 = tested on: KM12
# UO-31 = tested on: UO-31
# RXF 393 = tested on: RXF 393
# SK-OV-3 = tested on: SK-OV-3
# HCT-15 = tested on: HCT-15
# A498 = tested on: A498
# NCI-H522 = tested on: NCI-H522
# BT-549 = tested on: BT-549
# RPMI-8226 = tested on: RPMI-8226
# SK-MEL-5 = tested on: SK-MEL-5
# MCF7 = tested on: MCF7
# CAKI-1 = tested on: CAKI-1
# Hs-578T = tested on: Hs-578T
# 786-0 = tested on: 786-0
# OVCAR-4 = tested on: OVCAR-4
# PC-3 = tested on: PC-3
# M14 = tested on: M14
# HL-60 = tested on: HL-60
# HCC 2998 = tested on: HCC 2998
# K562 = tested on: K562
Structure (SMILES),GI50 (KM12),GI50 (UO-31),GI50 (RXF 393),GI50 (SK-OV-3),GI50 (HCT-15) [µM],GI50 (A498),GI50 (NCI-H522),GI50 (BT-549),GI50 (RPMI-8226),GI50 (SK-MEL-5),GI50 (MCF7),GI50 (CAKI-1),GI50 (Hs-578T),GI50 (786-0),GI50 (OVCAR-4),GI50 (PC-3),GI50 (M14),GI50 (HL-60),GI50 (HCC 2998),GI50 (K562)
CO[C@H]1C[C@@H]2CC[C@@H](C)[C@@](O)(O2)C(=O)C(=O)N2CCCC[C@H]2C(=O)O[C@H]([C@H](C)C[C@@H]2CC[C@@H](OC(=O)C(C)(CO)CO)[C@H](OC)C2)CC(=O)[C@H](C)/C=C(\C)[C@@H](O)[C@@H](OC)C(=O)[C@H](C)C[C@H](C)/C=C/C=C/C=C/1C [TEMSIROLIMUS],0.0264 µM (active),0.00496 µM (active),0.0034 µM (active),1.97 µM (inactive),0.0849,0.0363 µM (active),0.0802 µM (active),0.00904 µM (active),0.000292 µM (active),0.0792 µM (active),0.00538 µM (active),0.0142 µM (active),0.00724 µM (active),0.00312 µM (active),0.0247 µM (active),0.00123 µM (active),0.0417 µM (active),2.72 µM (inactive),1.82 µM (inactive),0.0228 µM (active)
OC(COc1ccc(Cl)cc1Cl)CN1CCCC1 (configuration not stated),> 100 µM (inactive),> 100 µM (inactive),> 100 µM (inactive),> 100 µM (inactive),> 100,38.1 µM (inactive),52.8 µM (inactive),30.5 µM (inactive),57 µM (inactive),27.9 µM (inactive),> 100 µM (inactive),> 100 µM (inactive),58.3 µM (inactive),> 100 µM (inactive),> 100 µM (inactive),> 100 µM (inactive),20 µM (inactive),42.7 µM (inactive),32.9 µM (inactive),71.6 µM (inactive)
C[C@@H]1CCC2[C@@H](C)[C@@H](O[C@H]3O[C@@H]4O[C@@]5(C)CCC6[C@H](C)CCC([C@H]3C)[C@]64OO5)O[C@@H]3O[C@@]4(C)CCC1[C@@]23OO4 (some centres not stated),0.865 µM (active),1.71 µM (inactive),> 12.6 µM (inactive),> 25 µM (inactive),0.733,> 25 µM (inactive),0.861 µM (active),1.23 µM (inactive),0.586 µM (active),3.44 µM (inactive),1.51 µM (inactive),> 25 µM (inactive),7.05 µM (inactive),21.9 µM (inactive),7.62 µM (inactive),0.18 µM (active),> 25 µM (inactive),0.5 µM (active),> 25 µM (inactive),1.04 µM (active)
CCCCCCCCCCC(O)C1CCC(C2CCC(C(O)CCCCC(O)CCCCCC(O)CC3=CC(C)OC3=O)O2)O1 (configuration not stated),3.78 µM (inactive),> 25 µM (inactive),> 17.2 µM (inactive),> 25 µM (inactive),> 25,> 25 µM (inactive),19.1 µM (inactive),> 25 µM (inactive),> 16.4 µM (inactive),0.258 µM (active),1.18 µM (inactive),> 25 µM (inactive),4.75 µM (inactive),> 25 µM (inactive),> 25 µM (inactive),> 25 µM (inactive),> 25 µM (inactive),2.36 µM (inactive),> 25 µM (inactive),> 6.9 µM (inactive)
O=c1[nH]nc(-c2ccccc2)n1-n1cnnc1,> 100 µM (inactive),> 100 µM (inactive),> 100 µM (inactive),> 100 µM (inactive),> 100,> 100 µM (inactive),> 100 µM (inactive),> 100 µM (inactive),> 100 µM (inactive),> 100 µM (inactive),> 100 µM (inactive),> 100 µM (inactive),> 100 µM (inactive),> 100 µM (inactive),> 100 µM (inactive),> 100 µM (inactive),> 100 µM (inactive),–,> 100 µM (inactive),> 100 µM (inactive)
CC(=O)O[C@H]1C(=O)[C@@]2(C)C([C@H](OC(=O)c3ccccc3)[C@]3(O)C[C@H](OC(=O)[C@H](O)[C@@H](NC(=O)c4ccc(Cl)cc4)c4ccccc4)C(C)=C1C3(C)C)C1(OC(C)=O)CO[C@@H]1C[C@@H]2O (some centres not stated),0.0466 µM (active),11.1 µM (inactive),1.02 µM (active),0.0986 µM (active),1.36,0.322 µM (active),0.0775 µM (active),0.0643 µM (active),< 0.01 µM (active),< 0.01 µM (active),0.0181 µM (active),3.06 µM (inactive),0.0188 µM (active),0.123 µM (active),7.21 µM (inactive),0.0615 µM (active),0.0889 µM (active),0.0025 µM (active),< 0.01 µM (active),> 25 µM (inactive)
COC(=N)C1(C#N)NC(c2ccsc2)C(C#N)(C#N)NC1c1ccsc1 (configuration not stated),> 100 µM (inactive),> 100 µM (inactive),> 100 µM (inactive),> 100 µM (inactive),> 100,> 100 µM (inactive),> 100 µM (inactive),> 100 µM (inactive),> 100 µM (inactive),> 100 µM (inactive),> 100 µM (inactive),> 100 µM (inactive),> 100 µM (inactive),> 100 µM (inactive),> 100 µM (inactive),81.1 µM (inactive),> 100 µM (inactive),78.3 µM (inactive),> 100 µM (inactive),> 100 µM (inactive)
CCOC(=O)[C@@H]1CCN2CN(c3ccc(OC)cc3)N=C(c3ccccc3)[C@@]12c1ccccc1,28.3 µM (inactive),17.8 µM (inactive),14.7 µM (inactive),44 µM (inactive),23.9,21.6 µM (inactive),17.5 µM (inactive),21.4 µM (inactive),14.1 µM (inactive),13.2 µM (inactive),20.7 µM (inactive),29.6 µM (inactive),23.4 µM (inactive),18.6 µM (inactive),44 µM (inactive),25.5 µM (inactive),20 µM (inactive),6.7 µM (inactive),26.2 µM (inactive),66.8 µM (inactive)
CCOC(=O)C1=C(C)N(Cc2ccccc2)C2(O)C(OC)CC(=O)C3C(=O)N(c4ccccc4)C(=O)C132 (configuration not stated),8.75 µM (inactive),13.3 µM (inactive),5.69 µM (inactive),–,5.75,21.5 µM (inactive),5.98 µM (inactive),4.97 µM (inactive),2.69 µM (inactive),10.3 µM (inactive),3.61 µM (inactive),17 µM (inactive),83.4 µM (inactive),8.07 µM (inactive),4.84 µM (inactive),7.73 µM (inactive),19.9 µM (inactive),3.93 µM (inactive),12.4 µM (inactive),4.43 µM (inactive)
CCCS(=O)OC1C(C2COC(C)(C)O2)OC2OC(C)(C)OC21 (configuration not stated),13.1 µM (inactive),15 µM (inactive),9.59 µM (inactive),22 µM (inactive),13.7,32.1 µM (inactive),9.27 µM (inactive),12.1 µM (inactive),2.88 µM (inactive),13.2 µM (inactive),12.4 µM (inactive),11.6 µM (inactive),4.46 µM (inactive),13.2 µM (inactive),15.2 µM (inactive),2.87 µM (inactive),8.61 µM (inactive),–,16.5 µM (inactive),5.65 µM (inactive)
COC(=O)/C=C\n1c(C)cc(=O)[nH]c1=O,> 100 µM (inactive),> 100 µM (inactive),> 100 µM (inactive),67.5 µM (inactive),> 100,> 100 µM (inactive),> 100 µM (inactive),> 100 µM (inactive),> 100 µM (inactive),> 100 µM (inactive),17.1 µM (inactive),–,> 100 µM (inactive),> 100 µM (inactive),> 100 µM (inactive),> 100 µM (inactive),> 100 µM (inactive),–,> 100 µM (inactive),> 100 µM (inactive)
N#Cc1c(N)c2c(c(-c3ccccc3)c1-c1ccccc1)C(=O)N(Nc1ccccc1)C2=O,24.2 µM (inactive),24.7 µM (inactive),19.3 µM (inactive),–,45.7,28.4 µM (inactive),58.6 µM (inactive),56.1 µM (inactive),29.5 µM (inactive),28.8 µM (inactive),47.8 µM (inactive),63.1 µM (inactive),95.3 µM (inactive),40.6 µM (inactive),35.1 µM (inactive),28.3 µM (inactive),22.2 µM (inactive),22.8 µM (inactive),35.8 µM (inactive),33.6 µM (inactive)
O=C1OC(C2(O)OC(=O)c3ccccc32)c2ccccc21 (configuration not stated),> 100 µM (inactive),> 100 µM (inactive),> 100 µM (inactive),> 100 µM (inactive),> 100,> 100 µM (inactive),> 100 µM (inactive),> 100 µM (inactive),> 100 µM (inactive),> 100 µM (inactive),> 100 µM (inactive),> 100 µM (inactive),> 100 µM (inactive),> 100 µM (inactive),> 100 µM (inactive),> 100 µM (inactive),> 100 µM (inactive),> 100 µM (inactive),> 100 µM (inactive),–
CN(C)CCNC(=O)c1cccc2c1Oc1c(cccc1[N+](=O)[O-])O2,1.26 µM (inactive),0.885 µM (active),2.08 µM (inactive),–,0.544,1.37 µM (inactive),0.975 µM (active),1.9 µM (inactive),0.583 µM (active),1.28 µM (inactive),0.957 µM (active),0.297 µM (active),1.94 µM (inactive),0.564 µM (active),5.04 µM (inactive),1.95 µM (inactive),2.64 µM (inactive),0.306 µM (active),1.04 µM (active),1.45 µM (inactive)

# Source: ChEMBL document CHEMBL1201862, “PubChem BioAssay data set” (2004)
